From patent US10808128B2, “Compounds as fluorescent probes, synthesis and applications thereof” (priority 2018, dated 2020)
“Also recorded” adds a separate entry of the source.

Assays:
[1] = tested on: primary mouse fibroblasts; assay: Imaging local order and viscosity of mitochondria during fibroblast activation; type: cell-based; conditions: HC-1 250 nM with TMRE 125 nM
Method: A study on the use of HC-1 for imaging local order and viscosity of mitochondria and use of said imaging to measure changes in mitochondrial function and cellular state and function was carried out.

[2] = tested on: mitochondria of U2OS cells; assay: Imaging of live cell mitochondria by HC-1 and co-localization assay with MitoTracker Green; type: cell-based, human; conditions: confocal
Method: For imaging, cells were plated on fibronectin coated (final concentration of 10 μg/ml) glass-bottomed dishes and allowed to attach. […] Cells were then washed twice with DPBS and fresh serum-free media was added.
Co-localization assay of HC-1 using MitoTracker Green: Cells were labeled using both MitoTracker Green and HC-1 dyes (by aforementioned protocol). Confocal images were taken using Olympus FV1000 Confocal microscope (×60 oil immersion objective at 1.6× optical zoom). Excitation parameters used were 488 nm excitation and 500-530 nm emission for MitoTracker Green, and 543 nm excitation and emissions above 560 nm for HCl. Pearson correlation dot plot was constructed using Coloc2 plugin of ImageJ.

[3] = tested on: mitochondria of live human primary fibroblasts; assay: Photo-toxicity study during repeat photo-illumination and fast mitochondrial imaging; type: cell-based; conditions: for photostability during fast imaging of mitochondria: human primary fibroblasts, fast time lapse (10 sec interval, 300 seconds)
From the text: Fast (10 sec interval) time lapse images were acquired for 300 seconds.

[4] = UV-Vis and steady state fluorescence of HC-1 in ten solvents; fluorescence quantum yield; type: physicochemical; conditions: for Quantum yield: reference Rhodamine B (0.55)
Method: UV-Vis measurement was performed in Shimadzu UV-Vis spectrophotometer (U2600) and steady state fluorescence study was performed in Horiba-Yobin (Fluorolog3) fluorescence spectrophotometer. For all the fluorescence measurements, excitation and emission slits were kept constant at 2 nm (except studies on pH dependence: excitation/emission=2/4 nm respectively). Final concentration was 2.5 μM (except for measurement of fluorescence quantum yield [1 μM] and lifetime [25 μM]) for all the spectroscopic studies.
The HC-1 absorption and fluorescence were recorded in ten solvents of varying polarity and viscosity.
An aqueous solution of Rhodamine B was used as reference. Fluorescence (integrated intensities) and absorbance values were obtained and the quantum yield was calculated using the following equation;
φ and φr: Quantum yield of sample and reference (0.55) respectively; A and Ar: Absorbance of sample and reference respectively; L: path length of the cuvette (here is same); N and Nr: refractive index of the solvents containing sample and reference; I and Ir: Integrated intensity of fluorescence emission of sample and reference respectively.

[5] = tested on: E14TG2a mouse embryonic stem cells; assay: Imaging HC-1 stained mitochondria of embryonic stem cells, incl. long term imaging to check cytotoxicity; type: cell-based; conditions: E14TG2a mouse ESCs with LIF
Method: E14TG2a (mouse embryonic stem cells) were cultured in GMEM supplemented with FBS, Glutamine, Non-essential amino acids, β-mercaptoethanol, Penicilin-streptomycin and depending on culture conditions, with or without […] (LIF). […] Images were acquired on the FV1000 confocal microscope. Imaging set up used in the present example was same as the imaging set up used for colocalization described above.
Confocal (FV1000, Olympus) images were acquired for 12 hours at 3 hours interval.

[6] = tested on: live human pluripotent stem cells (hPSCs); assay: Mitochondrial imaging of live pluripotent stem cells; type: cell-based; conditions: 250 nM, 30 minutes, confocal
[7] = tested on: mitochondria of U2OS cells; assay: Effect of CCCP on HC-1 fluorescence (mitochondrial membrane potential); type: cell-based, human; conditions: 5 μM CCCP
Method: Effect of Carbonyl Cyanide 3-Chloro Phenylhydrazone [CCCP]: Dye-labeled cells were imaged on the Olympus IX83 inverted microscope coupled to a 560 nm laser line connected to a Evolve 512 Delta EMCCD camera. 5 μM CCCP (final concentration) was used for the assay. Different regions were selected on the dish and imaged before the addition of CCCP and after addition at an interval of about 5 minutes for duration of about 15 minutes.

[8] = Effect of pH, ions, serum protein, plasmid DNA and glutathione on HC-1 fluorescence; type: physicochemical; conditions: HC-1 2.5 μM
Method: 0.1 M buffers of identical ionic strength solution were used for carryout the experiments. For pH 3, 4, 5 and 5.5, acetate buffer was used, for pH 6.2, 6.9 and 7.4, phosphate buffer was used and for pH 8 and 9.2, Tris-HCl buffer was used. The used salts were Sodium Chloride (NaCl), Potassium Chloride (KCl), Magnesium Chloride (MgCl2), Zinc Chloride (ZnCl2), Nickel Chloride (NiCl2) and Ferric Chloride (FeCl3). Final concentration of the cations (except Zn) was 10 mM and prepared in 1× Phosphate Buffer Saline. For Zn (II), saturated aqueous solution was used. Bovine Serum Albumin (BSA), plasmid DNA and glutathione concentration were at 1 mg−ml^−1, 5 μg−ml^−1 and 10 μM respectively. […] Fluorescence measurement was performed after 30 minutes of incubation.

[9] = tested on: mitochondria of U2OS cells; assay: Effect of Monensin on HC-1 stained mitochondria; type: cell-based, human; conditions: Monensin 10 µM / 10 μM, 0, 30, 60 minutes
[10] = tested on: mitochondria of human embryonic kidney (HEK) cells; assay: Effect of CCCP on HC-2 fluorescence; type: cell-based; conditions: 5 μM CCCP
Method: (§1) Formula I compounds (dyes) are positively charged and can be easily targeted to the mitochondria of the live cells. The dyes are highly specific for functional mitochondria. Localization is confirmed by ‘colocalization’ assays with mitochondria specific commercial dyes and high-resolution microscopy. […] This stock solution was stored at about 4° C.

[11] = tested on: mitochondria of live HEK 293 cells; assay: Effect of Monensin on HC-2 stained mitochondria; type: cell-based, human; conditions: HC-2 250 nM, Monensin 10 μM, 0-90 minutes
[12] = tested on: mitochondria of human primary fibroblast cells; assay: Colocalization of HC-2 with MitoTracker Green; type: cell-based; conditions: live human primary fibroblast cells
Method: as §1

[13] = Stability of dye stock solution; type: physicochemical; conditions: 1 mM in 50% DMSO-water, stored at about 4° C.
Method: as §1

[14] = HC-1 fluorescence in surfactant micelles (SDS, TritonX-100); CMC by sigmoidal fitting; type: physicochemical; conditions: from HC-1 (2.5 μM) fluorescence intensity versus surfactant concentration
Method: Initially 300 mM solution of sodium dodecyl sulfate (SDS) in milli-Q water was prepared. Then, solution of varied concentrations (1-300 mM) by serial dilution was prepared. All the prepared solutions were heated at 70° C. for about 15 minutes and stored at room temperature overnight. Similarly, a stock of 10 mM was prepared for TritonX-100 also. Then solution of different concentration (0.05-4 mM) was prepared by serial dilution.

[15] = HC-1 in Ethylene glycol (13.5 cP)
[16] = HC-1 in Glycerol (9.50 cP as printed)

**Q.** Which results are given for `CN(C)c1ccc(/C=C/C2=[N+](C)c3ccc4ccccc4c3C2(C)C)cc1.[I-]` [HC-1, (E)-2-(4-(Dimethylamino)styryl)-1,1,3-trimethyl-1H-benzo[e]indol-3-ium iodide]?
**A.** change of mitochondrial local ordering in activated fibroblasts [1]: increase in local ordering of the mitochondria; 2D intensity correlation with MitoTracker Green (Pearson R) [2]: 0.95; photostability during fast imaging of mitochondria [3]: highly photo-stable; also recorded: significantly more photostable; λabs ([4]; HC-1 in Acetone (0.32 cP)): 553 nm; λem ([4]; HC-1 in Acetone (0.32 cP)): 606 nm; Quantum yield ([4]; HC-1 in Acetone (0.32 cP)): 0.014 ± 0.0002; λabs ([4]; HC-1 in Acetonitrile (0.37 cP)): 577 nm; λem ([4]; HC-1 in Acetonitrile (0.37 cP)): 613 nm; Quantum yield ([4]; HC-1 in Acetonitrile (0.37 cP)): 0.028 ± 0.0002; λabs ([4]; HC-1 in Benzene (0.6 cP)): 548 nm; λem ([4]; HC-1 in Benzene (0.6 cP)): 608 nm; Quantum yield ([4]; HC-1 in Benzene (0.6 cP)): 0.014 ± 0.0001; λem ([4]; HC-1 in DCM (0.43 cP)): 608 nm; Quantum yield ([4]; HC-1 in DCM (0.43 cP)): 0.033 ± 0.0005; λabs ([4]; HC-1 in DMF (0.85 cP)): 553 nm; λem ([4]; HC-1 in DMF (0.85 cP)): 610 nm; Quantum yield ([4]; HC-1 in DMF (0.85 cP)): 0.028 ± 0.0003; λabs ([4]; HC-1 in Ethanol (1.2 cP)): 556 nm; λem ([4]; HC-1 in Ethanol (1.2 cP)): 607 nm; Quantum yield ([4]; HC-1 in Ethanol (1.2 cP)): 0.024 ± 0.0002; λabs [4, 15]: 562 nm; λem [4, 15]: 610 nm; Quantum yield [4, 15]: 0.087 ± 0.0004; λabs [4, 16]: 564 nm; λem [4, 16]: 610 nm; Quantum yield [4, 16]: 0.477 ± 0.0005; λabs ([4]; HC-1 in Methanol (0.6 cP)): 552 nm; λem ([4]; HC-1 in Methanol (0.6 cP)): 603 nm; Quantum yield ([4]; HC-1 in Methanol (0.6 cP)): 0.018 ± 0.0002; λabs ([4]; HC-1 in Water (1 cP)): 542 nm; λem ([4]; HC-1 in Water (1 cP)): 605 nm; Quantum yield ([4]; HC-1 in Water (1 cP)): 0.034 ± 0.001; mitochondrial staining of embryonic stem cells [5]: bright staining of the mitochondrial structures; staining of mitochondria of live hPSCs [6]: uniform staining of the mitochondria; effect of CCCP on HC-1 fluorescence [7]: rapid and complete loss of HC-1 fluorescence; effect of pH on HC-1 emission ([8]; 0.1 M buffers pH 3-9.2, small changes at ~pH 3 or ~pH 9): little or no effect; effect of metal ions, serum proteins, plasmid DNA and glutathione (GSH) on HC-1 emission ([8]; 30 minutes incubation): did not significantly affect; effect of Monensin on HC-1 fluorescence in mitochondria [9]: significant increase in HC-1 fluorescence; also recorded: sensitive to changes in mitochondrial ordering

**Q.** Which results are given for `CN(C)c1ccc(/C=C/C=C/C2=[N+](C)c3ccc4ccccc4c3C2(C)C)cc1.[I-]` [HC-2, 2-((1E,3E)-4-(4-(Dimethylamino)phenyl)buta-1,3-dien-1-yl)-1,1,3-trimethyl-1H-benzo[e]indol-3-ium iodide]?
**A.** effect of CCCP on HC-2 fluorescence [10]: loss of HC-2 fluorescence; effect of Monensin on HC-2 fluorescence in mitochondria [11]: time-dependent increase in fluorescence intensity; also recorded: Time dependent increase in fluorescence intensity; 2D intensity correlation with MitoTracker Green (Pearson R) [12]: 0.91; photostability during fast imaging of mitochondria [3]: highly photo-stable; stability of stock solution [13]: stable for one year; staining of mitochondria of live hPSCs [6]: uniform staining of the mitochondria

**Q.** For `CCCCCCCCCCCCOS(=O)(=O)[O-].[Na+]` [SDS, sodium dodecyl sulphate], which “critical micellar concentration (CMC)” value [14] is on record?
**A.** ~7.5 mM

**Q.** With TritonX-100 as the molecule, how does the “critical micellar concentration (CMC)” value [14] read?
**A.** ~1 mM

**Q.** Which “photo-toxicity during repeat photo-illumination” value [3] does the source give for “tetramethylrhodamine, ethyl ester [TMRE, reference compound]” here?
**A.** irradiation induced depolarization of mitochondrial membrane

**Q.** And the “photostability during fast imaging of mitochondria” value [3]?
**A.** photobleaches
